# In PubChem BioAssay (NCI):
# Where “and” joins values, the source holds several entries; their conditions need not be identical. Identical values can stand only once.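 1) Cells in 96-well plates. 2) Compound, 48 h, 5 concentrations. 3) Linear interpolation between surrounding doses. 4) Unreached endpoint = highest concentration. The concentration for 50% growth inhibition is given as GI50. TGI denotes the concentration required for complete inhibition of growth.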
# Key:
# Assay in all cases: NCI tumour cell line growth inhibition, 48 h
# SF-295 CNS = system: SF-295 CNS
# SK-MEL-2 melanoma = system: SK-MEL-2 melanoma
# HL-60(TB) leukemia = system: HL-60(TB) leukemia
# SK-OV-3 ovarian = system: SK-OV-3 ovarian
# 786-0 renal = system: 786-0 renal
# U251 CNS = system: U251 CNS
# NCI-H460 lung = system: NCI-H460 lung
# NCI-H23 lung = system: NCI-H23 lung
# UACC-257 melanoma = system: UACC-257 melanoma
# MDA-MB-231 breast = system: MDA-MB-231 breast
Structure (SMILES),TGI (SF-295 CNS),TGI (SK-MEL-2 melanoma),TGI (HL-60(TB) leukemia) [µM],TGI (SK-OV-3 ovarian) [µM],TGI (786-0 renal),TGI (U251 CNS),TGI (NCI-H460 lung),TGI (NCI-H23 lung),TGI (UACC-257 melanoma),GI50 (SF-295 CNS),GI50 (SK-MEL-2 melanoma) [µM],GI50 (SK-OV-3 ovarian),GI50 (786-0 renal) [µM],GI50 (U251 CNS) [µM],GI50 (NCI-H460 lung) [µM],GI50 (NCI-H23 lung) [µM],GI50 (UACC-257 melanoma),GI50 (MDA-MB-231 breast) [µM],TGI (MDA-MB-231 breast) [µM],GI50 (HL-60(TB) leukemia) [µM]
CCOc1ccccc1NC(=O)C(=O)CC(=O)c1c(C)n([O-])c2ccccc2[n+]1=O,> 100 µM,> 100 µM,> 100,> 100,> 100 µM,> 100 µM,> 100 µM,> 100 µM,> 100 µM,–,–,–,–,–,–,–,–,–,–,–
Nn1c(-c2ccccc2)nc2ccc(Br)cc2c1=O,> 100 µM,> 100 µM,76.8,> 100,> 100 µM,> 100 µM,> 100 µM,> 100 µM,> 100 µM,–,–,–,–,–,–,–,–,–,–,–
CC1=C(C)C(=O)c2c(cc3ccc4ccccc4n23)C1=O,> 100 µM,–,> 100,> 100,> 100 µM,> 100 µM,> 100 µM,> 100 µM,–,–,–,–,–,–,–,–,–,–,–,–
O=C1CC(O)C=C1Nc1ccc(Cl)cc1 (stereo unspecified),> 100 µM,> 100 µM,95.6,> 100,> 100 µM,> 100 µM,> 100 µM,> 100 µM,> 100 µM,–,–,–,–,–,–,–,–,–,–,–
ClCc1cccc(Cn2cnc3c(Cl)ncnc32)c1,8.68 µM,51.1 µM,–,10.6,19.7 µM,3.48 µM,36 µM,4.07 µM,37.1 µM,3.25 µM,22.1,3.31 µM,6.17,1.8,11.7,1.92,20.2 µM,1.99,4.04,–
COC(=O)C1CC2(CC3=C1CCCC3)OCCO2 (stereo unspecified),> 100 µM,> 100 µM,> 100,> 100,> 100 µM,> 100 µM,> 100 µM,> 100 µM,> 100 µM,–,–,–,–,–,–,–,–,–,–,–
CC[C@H](C)N(CCN)C(=O)c1cc2ccccc2c(-c2ccccc2Cl)n1,28.4 µM,33.5 µM,23.1,–,> 100 µM,24.4 µM,27.1 µM,28.6 µM,3.37 µM,–,–,–,–,–,–,–,–,–,–,–
O=C1C(=O)N(C(=O)c2ccc(Cl)c(Cl)c2)c2ccccc21,> 100 µM,–,> 100,> 100,> 100 µM,> 100 µM,–,> 100 µM,–,–,–,–,–,–,–,–,–,–,–,–
N#Cc1c(Sc2ccccc2N)cccc1Sc1ccccc1N,–,–,–,–,–,–,–,–,–,84 µM,–,–,37.8,35.6,40.3,59,21.3 µM,49.8,–,16.4
CCOC(=O)c1c2c(n3ccc(NC(=O)CCN4CCCC4)cc13)C(=O)c1ncccc1C2=O,2.67 µM,39.3 µM,3.32,23.5,1.69 µM,2.82 µM,–,–,33.9 µM,1.1 µM,18.5,2.22 µM,0.214,1.27,–,–,13.8 µM,1.84,3.83,1.07
Cc1cc2c(c(C#N)c1C)NC(=O)CCC2=O,> 100 µM,> 100 µM,> 100,–,> 100 µM,> 100 µM,> 100 µM,> 100 µM,> 100 µM,–,–,–,–,–,–,–,–,–,–,–
COC(=O)N[C@H]1CCc2c(Br)c(OC)c(OC)c(OC)c2-c2ccc(SC)c(=O)cc21,–,–,< 0.01,> 100,24.8 µM,15 µM,10.7 µM,18.5 µM,61.2 µM,–,–,< 0.01 µM,< 0.0163,< 0.01,< 0.01,< 0.01,11.4 µM,< 0.01,14,< 0.01
N#Cc1cn(C2OC(CO)C(O)C2O)c2ncnc(N)c12 (stereo unspecified),–,–,–,–,> 100 µM,–,–,–,–,< 0.0193 µM,–,0.108 µM,–,0.0276,< 0.0141,0.0256,–,–,> 100,0.045
CC(=O)n1c(COS(C)(=O)=O)nc2ccccc21,> 100 µM,> 100 µM,–,–,> 100 µM,> 100 µM,> 100 µM,> 100 µM,> 100 µM,–,–,–,–,–,–,–,–,–,> 100,–
CNC(P(=O)([O-])[O-])P(=O)([O-])[O-].N.N.[Pt+2],> 100 µM,> 100 µM,–,–,> 100 µM,> 100 µM,> 100 µM,> 100 µM,–,> 100 µM,> 100,–,> 100,> 100,51.2,> 100,–,–,–,–
CC1=C(C(=O)Nc2c(C)cccc2C)C(c2ccc3c(c2)OCO3)C(C(=O)Nc2c(C)cccc2C)=C(C)N1,32.7 µM,–,56.1,> 100,28.2 µM,29.1 µM,39.9 µM,29.8 µM,32.3 µM,–,–,–,–,–,–,–,–,–,–,–
CN1CCN(CN2C(=O)C3C4C=CC(C3C2=O)C2C3C(=O)N(CN5CCN(C)CC5)C(=O)C3C42)CC1 (stereo unspecified),97.4 µM and > 100 µM,40 µM and 35.6 µM and 30 µM,–,> 100,34.3 µM and 40.3 µM and 36 µM,38.3 µM and 37.2 µM and 33 µM,32.3 µM and 37.9 µM and 27.3 µM,43.9 µM and 39.6 µM and 75.2 µM,84.4 µM and 54.3 µM and > 100 µM,32.2 µM and 86.2 µM and 49.2 µM,–,37.4 µM and 34.1 µM and 80.1 µM,–,–,–,–,35.7 µM and 25 µM and 62.2 µM,–,56.8,–
COc1ccc(-c2nc3sc(C)cn3c2/C=C/C(=O)c2cc(OC)c(OC)c(OC)c2)cc1,> 100 µM,–,7.48,> 100,> 100 µM,> 100 µM,–,–,6.37 µM,4.42 µM,–,4.19 µM,5.31,4.04,–,–,2.49 µM,3.78,> 100,2.49
Nc1ccn(CCOC(=O)c2ccccc2)c(=O)n1,> 100 µM,> 100 µM,> 100,> 100,> 100 µM,> 100 µM,> 100 µM,–,> 100 µM,–,–,–,–,–,–,–,–,–,–,–
COc1cc(OC)c([C@@H]2OC(=O)C3C2C(=O)O[C@H]3c2cc(OC)c(OC)cc2OC)cc1OC (stereo partly specified),> 100 µM,> 100 µM,> 100,> 100,> 100 µM,> 100 µM,> 100 µM,> 100 µM,> 100 µM,–,–,–,–,–,–,–,–,–,–,–
Cc1ccc(OCC(=O)N2N=C(c3ccccc3)CC2(O)c2ccccc2)cc1 (stereo unspecified),> 100 µM,> 100 µM,> 100,> 100,30 µM,34.1 µM,28.2 µM,> 100 µM,> 100 µM,–,–,–,–,–,–,–,–,–,–,–
